Measurements published in PubChem BioAssay (NCI).
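Exposure lasted 48 hours, with cells grown in 96-well plates and compounds tested at five concentrations. Definition used: TGI = concentration required for complete inhibition of growth.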

Legend:
Assay in all cases: growth of human tumour cells (NCI), 48 h
[1] = test system: U251 CNS
[2] = test system: MALME-3M melanoma
[3] = test system: HCT-15 colon
[4] = test system: RXF 393 renal
[5] = test system: SF-268 CNS
[6] = test system: BT-549 breast
[7] = test system: OVCAR-5 ovarian
[8] = test system: HL-60(TB) leukemia
[9] = test system: SK-MEL-28 melanoma
[10] = test system: LOX IMVI melanoma
[11] = test system: SR leukemia
[12] = test system: MDA-MB-435
[13] = test system: HS 578T breast
[14] = test system: NCI-H522 lung
[15] = test system: SW-620 colon
[16] = test system: UO-31 renal
[17] = test system: RPMI-8226 leukemia
[18] = test system: SK-MEL-2 melanoma
[19] = test system: 786-0 renal
[20] = test system: MDA-MB-231 breast
[21] = test system: MDA-N
[22] = test system: K-562 leukemia
[23] = test system: SK-MEL-5 melanoma
[24] = test system: SF-295 CNS
[25] = test system: HOP-92 NSCLC
[26] = test system: M14 melanoma
[27] = test system: MCF7 breast
[28] = test system: A549 NSCLC
[29] = test system: SN12C renal
[30] = test system: HOP-62 NSCLC
[31] = test system: HT29 colon
[32] = test system: PC-3 prostate
[33] = test system: A498 renal
[34] = test system: UACC-257 melanoma
[35] = test system: SF-539 CNS
[36] = test system: OVCAR-4 ovarian
[37] = test system: HCT-116 colon
[38] = test system: UACC-62 melanoma
[39] = test system: CCRF-CEM leukemia
[40] = test system: OVCAR-8 ovarian
[41] = test system: KM12 colon
[42] = test system: DU-145 prostate
[43] = test system: NCI-H460 lung
[44] = test system: ACHN renal
[45] = test system: SNB-19 CNS
[46] = test system: NCI-H23 lung
[47] = test system: HCC-2998 colon
[48] = test system: TK-10 renal
[49] = test system: SK-OV-3 ovarian
[50] = test system: OVCAR-3 ovarian
[51] = test system: IGROV1 ovarian
[52] = test system: NCI/ADR-RES ovarian
[53] = test system: EKVX NSCLC
[54] = test system: NCI-H226 lung
[55] = test system: SNB-75 CNS
[56] = test system: COLO 205 colon
[57] = test system: T-47D breast
[58] = test system: CAKI-1 renal
[59] = test system: MOLT-4 leukemia

`O=C1OC[C@H]2[C@@H]1[C@H]1O[C@@H]2C2=C(CCC2)C1=O` was tested, and the TGI [1] was over 100 µM, the TGI [2] was over 100 µM and the TGI [3] was over 100 µM. It also gave a TGI [4] of over 100 µM, a TGI [5] of over 100 µM and a TGI [6] of over 100 µM. It also gave a TGI [7] of over 100 µM, a TGI [8] of over 100 µM and a TGI [9] of over 100 µM. It also gave a TGI [10] of over 100 µM, a TGI [11] of over 100 µM and a TGI [12] of over 100 µM. For the same molecule, the TGI [13] was over 100 µM, the TGI [14] was over 100 µM and the TGI [15] was over 100 µM. The TGI [16] was over 100 µM, the TGI [17] was over 100 µM and the TGI [18] was over 100 µM. For the same molecule, the TGI [19] was over 100 µM, the TGI [20] was over 100 µM and the TGI [21] was over 100 µM. It also gave a TGI [22] of over 100 µM, a TGI [23] of over 100 µM and a TGI [24] of over 100 µM. The TGI [25] was over 100 µM, the TGI [26] was over 100 µM and the TGI [27] was over 100 µM. It also gave a TGI [28] of over 100 µM, a TGI [29] of over 100 µM and a TGI [30] of over 100 µM. For the same molecule, the TGI [31] was over 100 µM, the TGI [32] was over 100 µM and the TGI [33] was over 100 µM. For the same molecule, the TGI [34] was over 100 µM, the TGI [35] was over 100 µM and the TGI [36] was over 100 µM. It also gave a TGI [37] of over 100 µM, a TGI [38] of over 100 µM and a TGI [39] of over 100 µM. For the same molecule, the TGI [40] was over 100 µM, the TGI [41] was over 100 µM and the TGI [42] was over 100 µM. The TGI [43] was over 100 µM, the TGI [44] was over 100 µM and the TGI [45] was over 100 µM. The TGI [46] was over 100 µM, the TGI [47] was over 100 µM and the TGI [48] was over 100 µM. For the same molecule, the TGI [49] was over 100 µM, the TGI [50] was over 100 µM and the TGI [51] was over 100 µM. It also gave a TGI [52] of over 100 µM, a TGI [53] of over 100 µM and a TGI [54] of over 100 µM. The TGI [55] was over 100 µM, the TGI [56] was over 100 µM and the TGI [57] was over 100 µM.
With `Cc1c(C(=O)OCc2ccccc2)[n+](=O)c2cc(Cl)c(Cl)cc2n1[O-]` the TGI [1] was over 100 µM, the TGI [3] was 34.1 µM and the TGI [4] was 36 µM. It also gave a TGI [5] of 39.8 µM, a TGI [6] of 44.4 µM and a TGI [7] of 39.2 µM. The TGI [8] was 27.3 µM, the TGI [9] was 64.8 µM and the TGI [10] was 35.7 µM. It also gave a TGI [11] of 21.4 µM, a TGI [12] of 42.4 µM and a TGI [13] of 47.4 µM. The TGI [16] was 32 µM, the TGI [17] was 21.2 µM and the TGI [18] was 38.6 µM. The TGI [19] was 30.5 µM, the TGI [20] was 38.2 µM and the TGI [21] was 40.7 µM. The TGI [22] was 57.6 µM, the TGI [23] was 28.2 µM and the TGI [24] was 37.4 µM. For the same molecule, the TGI [25] was 20 µM, the TGI [26] was 28.3 µM and the TGI [27] was 54.4 µM. The TGI [28] was 28 µM, the TGI [29] was 45.3 µM and the TGI [58] was 28.2 µM. For the same molecule, the TGI [30] was 30.5 µM, the TGI [31] was 32.2 µM and the TGI [32] was 55 µM. It also gave a TGI [33] of 35.6 µM, a TGI [34] of 29.6 µM and a TGI [35] of 55.9 µM. For the same molecule, the TGI [36] was 26.9 µM, the TGI [37] was 27.2 µM and the TGI [38] was 31 µM. For the same molecule, the TGI [39] was 39.4 µM, the TGI [40] was 46.5 µM and the TGI [41] was 24.6 µM. For the same molecule, the TGI [42] was 27.6 µM, the TGI [43] was 30.7 µM and the TGI [44] was 53.7 µM. The TGI [45] was 68.1 µM, the TGI [46] was 32.5 µM and the TGI [47] was 28.5 µM. It also gave a TGI [48] of 40.3 µM, a TGI [49] of 60 µM and a TGI [50] of 25 µM. It also gave a TGI [51] of 19 µM, a TGI [59] of 21.5 µM and a TGI [52] of 48.4 µM. For the same molecule, the TGI [53] was 28.6 µM, the TGI [54] was 20.1 µM and the TGI [56] was 32.2 µM. The TGI [57] was 23.6 µM.
